Measurements: patent publication US12337033B2, “Encapsulated glycolipid antigens for treatment of neoplastic diseases” (EnGeneIC Molecular Delivery Pty Ltd, priority 2019, dated 2025)

Assays:
JAWSII cells = assay: αGC surface presentation through CD1d on JAWSII cells (anti-alpha GalCer:mCD1d staining, flow cytometry); format: cell-based, mouse; details: 8h-48h post-treatment, compared to minicells alone and untreated, free αGC 1000 ng/ml
Protocol: Cells used: Mouse immature […] JAWSII (ATCC® CRL-11904™).
Preparation Perfecta3D 96-Well Hanging Drop Plate: The upper and lower side tray reservoirs of the 3D hanging drop plates were filled with melted 1% agarose using a P1000 pipette (1 g agarose dissolve in 100 ml of water, dissolved in microwave and allowed to cool to ˜50° C.). The plates were allowed to dry and settle at room temperature for at least 30 min. The outside wells of the hanging drop plate were then filled with 50 μl of sterile cell culture media (without cells)/well.
Treatment of JAWSII spheroids with EDVαGC: JAWSII cells were treated with 1000 ng/ml aGC (positive control); empty minicells and minicellsαGC compared to untreated cells and collected at 8h, 16h, 24h and 48h post-treatment (FIGS. 8A-8D).
Dissociation of JAWSII cells into single-cell suspensions: JAWSII cells were grown as semi-suspension cultures in T25 or T75 flasks. The culture media was carefully collected into a sterile 50 ml tube by pipetting using a pipette-aid and the culture surface of the flask was washed 2× with 5 ml of sterile PBS, and collected in the same sterile 50 ml tube after each wash. […] To determine the cell number, 10 μl of the cell suspension was mixed with 10 μl of trypan blue solution and analyzed using an EVE automated cell counter. […]

[1] = tested on: many different tumor cell lines; assay: Cytotoxicity assays against tumor cell lines; format: cell-based

For `CCCCCCCCCCCCCCCCCCCCCCCCCC(=O)N[C@@H](CO[C@H]1O[C@H](CO)[C@H](O)[C@H](O)[C@H]1O)[C@H](O)[C@H](O)CCCCCCCCCCCCCC` [free α-GC, α-galactosylceramide], the “staining with anti-GalCer:mCD1d (α-GC presentation on the cell surface by CD1d)” value (JAWSII cells) was “clear shift”.
With `COc1cccc2c1C(=O)c1c(O)c3c(c(O)c1C2=O)C[C@@](O)(C(=O)CO)C[C@@H]3OC1CC2C(OC3C(OC)OCCN23)C(C)O1` (stereo partly drawn) [PNU159682, 3′-deamino-3″,4′-anhydro-[2″(S)-methoxy-3″(R)-oxy-4″-morpholinyl] doxorubicin] the “drug resistance in tumor cell lines” value ([1]; a number of different tumor cell lines) was “appears to overcome drug resistance” and the “potency compared with a range of conventional chemotherapeutics” value ([1]; cytotoxicity assays, many different tumor cell lines) was “much more potent”.
